Counter-ions that a name gives are not always drawn.
What was measured:
[1] = pH measurement of saturated basic salts in water; assay type: physicochemical; settings: excess basic salt suspended in water, 37° C., 7 days
Protocol: The suspension was then incubated at 37° C. for 7 days. The pH of the supernatant was determined with a Corning 430 pH meter (Corning Inc., NY).

[2] = pH of saturated basic salt suspension after addition of 1 N HCl; assay type: physicochemical; settings: acid added to the saturated suspension with excess salt, 37° C., 3 days
Description: The difference of the neutralization effect from the salts is also reflected in the different water contents of their PLGA devices.

BSA [3] = target: T1, BSA (Bos taurus, UniProt P02769); assay: BSA release and aggregation in PLGA millicylinders incubated in PBST at 37° C.; assay type: physicochemical, bovine
T1 construct: purchased Sigma Chemical Co. (St. Louis, Mo.) A-3059
T1 sequence (P02769 25-607): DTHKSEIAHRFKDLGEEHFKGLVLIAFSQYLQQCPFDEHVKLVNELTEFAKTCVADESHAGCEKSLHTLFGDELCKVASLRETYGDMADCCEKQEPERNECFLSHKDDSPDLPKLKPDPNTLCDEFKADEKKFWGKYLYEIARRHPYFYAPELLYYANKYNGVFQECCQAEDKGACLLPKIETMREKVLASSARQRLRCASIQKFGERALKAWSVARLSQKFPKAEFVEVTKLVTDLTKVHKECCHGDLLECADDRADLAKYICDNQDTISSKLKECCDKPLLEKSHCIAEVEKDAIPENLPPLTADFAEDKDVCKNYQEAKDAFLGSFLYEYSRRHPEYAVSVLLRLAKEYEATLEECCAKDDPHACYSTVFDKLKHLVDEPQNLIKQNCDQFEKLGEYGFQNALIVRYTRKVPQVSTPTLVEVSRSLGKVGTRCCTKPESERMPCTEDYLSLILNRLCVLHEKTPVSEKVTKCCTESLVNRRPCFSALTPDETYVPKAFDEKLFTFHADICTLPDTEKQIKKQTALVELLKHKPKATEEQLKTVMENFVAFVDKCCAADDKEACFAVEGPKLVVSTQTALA
Protocol: A solvent extrusion method similar to that used previously by our group for intraocular implants was used to prepare the PLGA cylinders with a diameter on the millimeter scale, which we term millicylinders. Briefly, a uniform suspension of sieved protein powder (<90 μm) with or without basic salt in 50% (w/w) acetone-PLGA 50/50 solution was loaded in a syringe and extruded into a silicone tubing (I.D. 0.8 mm) at about 0.1 ml/min. The solvent extruded suspension was dried at room temperature for 24 h and then dried in a vacuum oven at 45° C. for another 24 h before testing. The protein loading was calculated as the percentage of amount of BSA versus the total weight of mixture (i.e., protein, polymer, and salt).
Release of protein was carried out in PBST (which consists of PBS (7.74 mM Na2HPO4, 2.26 mM NaH2O4, 137 mM NaCl, and 3 mM KCl, pH 7.4), and 0.02% w/v Tween® 80) at 37° C. under perfect sink conditions. Millicylinders (10×0.8 mm, 5-10 mg or microspheres (about 20 mg) were placed in I ml of the release medium and the medium was replaced at each time point. The protein content was determined by using Coornassie plus protein assay reagent, which is also compatible with denaturing agents (e.g., 6 M urea) and reducing agents (e.g., 10 mM DTT).
Protein stability was assessed by the percentage of water insoluble non-covalent BSA aggregates generated within the implants versus the initial encapsulated protein. Protein stability within PLGA implants was analyzed as follows: First, millicylinders with a length of 1 cm were incubated under 80% and 96% relative humidity (RH) at 37° C. for 21 days. Then, the polymer was dissolved in acetone and centrifuged to spin down the protein. The remaining protein pellet was washed three times with acetone and then air-dried. The final protein pellet was analyzed as in Analysis of the Protein Extracted from PLGA Implants. The protein remaining in PLGA implants after release in PBST at 37° C. for 28 days was also extracted similarly and analyzed as above.
The BSA pellet extracted from PLGA implants was first reconstituted in PBST and incubated at 37° C. overnight to determine the soluble protein fraction remaining in the polymer. Any remaining aggregates were collected by centrifugation again, and brought up in the denaturing solvent (PBST/6 M urea/1 mM EDTA) and incubated at 37° C. for 30 mm to dissolve non-covalent bonded BSA aggregates. Then, any final undissolved BSA aggregates were collected again and dissolved in the reducing solvent (the denaturing solvent plus 10 mM DTT) to dissolve any disulfide-bonded aggregates.
For quantitation of soluble BSA, a modified Bradford assay was used as follows: 10 μl of standard or sample in PBST was added to 250 μl of Coomassle reagent/well on a 96-well plate and then the plate was read at 595 nm using a Dynex MRX microplate reader (Dynex Technology, Inc., Chantilly, Va.). The concentration range of the standard curve was 50 to 1000 μg/ml. For quantitation of non-covalent and covalent BSA aggregates, the solvents used for preparation of standards and samples were 6 M urea and 6 M urea/10 mM DTT, respectively.
The solvent-extruded suspension was dried at room temperature (24 h) and then dried in a vacuum oven at 45° C. (24 h). For preparation of bFGF millicylinders, bFGF was combined with heparin, sucrose and BSA additives at a weight ratio (additive bFGF) of 1, 180, and 1000, respectively, in 0.5 mM EDTA and 10 mM sodium phosphate buffer (pH 7.4). The solution was lyophilized for 2 days at room temperature using a Labconco Freeze Dry System (Kansas City, Mo.) to a fine powder with 4% moisture (determined by a Karl Fisher Titrator (Model DL 18, Mettler-Toledo Inc., NJ)) and sieved before suspension in PLGA-acetone and extrusion. For preparation of […] millicylinders, solutions of BMP-2 combined with BSA or gum arabic (Sigma, St. Louis, Mo.) were similarly lyophilized and sieved. The millicylinders; were prepared in the same way as for BSA/PLGA millicylinders. […]

BSA [4] = target: T1, BSA; assay: BSA release and aggregation in W/O/W PLGA microspheres in PBST at 37° C.; assay type: physicochemical, bovine
[5] = VCR and VBL stability and release in PLGA microspheres by HPLC; assay type: physicochemical
Protocol: All other reagents and solvents were of analytical grade or purer and purchased from commercial suppliers. Microspheres Preparation Microspheres were prepared by a standard oil-in-oil emulsion-solvent extraction method (17). […] The resulting solution or suspension was added drop-wise to 25 ml of oil (95% cottonseed oil and 5% Span 85 emulsifier) stirred at 500 rpm and room temperature. After 2.5 h of microsphere hardening. 40 ml of petroleum ether (bp: 50 to 100° C.) were added to the emulsion to extract CAN. The emulsion was stirred for additional 15 min, the particles were collected by filtration, and washed 3 times with petroleum ether. The hardened microspheres were flash-frozen with liquid nitrogen and lyophilized with a Labconco Freezone 6 system for 1 day.
The HPLC system consisted of the following: a 510 pump, a 717 Plus autosampler, and a 486 UV detector (waters, Milford, Mass.). […] The mobile phase was composed of aqueous solution of sodium phosphate (10 mM) and methanol 40:60 (v/v) (pH 7.0). For UV detection, the wavelength was set to 298 nm.
Drug release from microspheres was carried out in PBS (127 mM NaCl, 3 mM KCl, 8 mM Na2HPO4, 1 mM KH2PO4, pH 7.4) containing Tween 80 (0.02% w/w/) (PBST) at 37° C. under perfect sink conditions. […] Microspheres were weighed and dissolved in a 50% (v/v) ACN water solution. The precipitated polymer and salts were spun down by brief centrifugation. An aliquot of the supernatant containing drug was removed and analyzed by HPLC.

BSA [6] = target: T1, BSA; assay: Simulation of BSA instability in the polymer microclimate; assay type: physicochemical, bovine; settings: Simulated: lyophilized BSA at pH 2 under 86% R.H. at 37° C.
Protocol: Three experiments were designed to simulate the potential deleterious conditions in PLGA devices. […] At various times, the protein was reconstituted in PBST and examined for the type of aggregates as described above. To examine the effect of water, water was directly added to lyophilized BSA at pH 2, sealed and then incubated at 37° C. for 1 week, and analyzed as above (16). […] Loss of BSA content from solution was used to determine the extent of BSA adsorption to the polymer.

nude mice = assay: In vivo angiogenesis of subcutaneously implanted bFGF devices; settings: BSA/Mg(OH)2-containing PLGA formulation implanted subcutaneously, data not shown
Description: In both cases, a controlled release of protein was observed over 28 days (data not shown) resulting in a recovery (released+soluble residue fraction) of >80% (Table 3). In contrast, when the base was removed from the formulation (18% gum arabic), only 30% protein was recovered by the immunoassay. Therefore, the stability characteristic of BMP-2 in PLGA millicylinders was very similar to that of bFGF (although additional stabilizers were used for bFGF) with and without the addition of the basic additive. For both growth factors, in the absence of basic additive, the protein was released mostly on the first day and only a small amount of protein could be recovered from the polymer after 28 days release. In the presence of the basic salt, both proteins were continuously released with >80% recoverable in the 28-day experiment. Moreover, the in vivo biological activities (angiogenesis in nude mice for the bFGF and osteogenesis in rats for the BMP-2) of the BSA/Mg(OH)2-containing formulations were also confirmed when the devices were implanted subcutaneously (data not shown).

[7] = reference (31); cited from earlier work
Balb/c 3T3 fibroblasts = assay: Bioassay for bFGF, cell proliferation (3H-thymidine incorporation); assay type: cell-based; settings: bFGF from Mg(OH)2/BSA/heparin PLGA millicylinders, release and residual fraction
Protocol: The biological activity of bFGF was determined by a cell proliferation assay (20). Balb/c 3T3 fibroblasts (25,000/well, CCL-163, ATCQ in Dulbecco's modified Eagle's medium (DMEM) containing 10% bovine calf serum, […] were seeded (200 μl/well) on 96-well plates. The cells were grown to confluence for one week without changing the medium. On day 7, bFGF samples or standards (10 μl) in the release medium were added and followed 20 h later by addition of 1 μCi of 3H-thymidine (6.7 Ci/mmol, DuPont/NEN® Research Products, Boston, Mass.) per well. After another 6-8 h, the cells were collected on filter paper by using a PHD TM cell harvester (Cambridge Technology Inc.). The harvested cells were resuspended in 3 ml of scintillation cocktail 3a7OB (Research Products International Corp., IL) and counted (Beckman LS 1701 scintillation counter).

tPA = tPA (Homo sapiens, UniProt P00750); assay: tPA release from PLGA millicylinders by activity analysis; assay type: physicochemical
tPA, sequence (P00750 36-562): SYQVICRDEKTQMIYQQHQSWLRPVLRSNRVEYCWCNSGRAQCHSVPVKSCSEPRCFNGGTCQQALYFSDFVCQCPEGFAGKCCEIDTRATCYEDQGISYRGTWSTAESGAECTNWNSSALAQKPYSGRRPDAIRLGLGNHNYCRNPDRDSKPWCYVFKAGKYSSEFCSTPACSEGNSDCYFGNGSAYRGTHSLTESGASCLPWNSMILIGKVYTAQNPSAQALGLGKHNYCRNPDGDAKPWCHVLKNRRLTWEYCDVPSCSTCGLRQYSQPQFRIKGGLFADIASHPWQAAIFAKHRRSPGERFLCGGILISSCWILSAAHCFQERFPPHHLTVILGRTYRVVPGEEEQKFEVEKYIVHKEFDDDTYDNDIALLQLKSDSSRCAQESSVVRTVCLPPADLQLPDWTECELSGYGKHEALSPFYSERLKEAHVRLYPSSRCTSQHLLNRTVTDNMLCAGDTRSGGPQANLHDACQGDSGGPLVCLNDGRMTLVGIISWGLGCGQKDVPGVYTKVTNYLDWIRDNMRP
Protocol: Here, by using this rationale, tPA was successfully encapsulated into PLGA implants. tPA, a protein with a MW of ˜60 K Da is a tissue type endogenous serine proteaese involved in thrombi dissolution. The FDA has approved the use of recombinant tPA in the treatment of myocardial infarction. Controlled release systems for local delivery was developed by using hydrogel to control wound healing. A multi-drug controlled release implant with tPA encapsulated was also tested for the intraocular management of proliferative vitroretinopahty (PVR). […] Arginine hydrochloride and BSA were added in the release medium to improve the stability of released tPA. The release profile and active residue of tPA after release was evaluated by activity analysis. […] As far as is known, only very few protein formulations have shown continuous and complete release over one month period without losing activity.

Q: What does the source list for `O=P([O-])([O-])[O-].O=P([O-])([O-])[O-].[Ca+2].[Ca+2].[Ca+2]` [Ca3(PO4)2]?
A: pH of saturated solution [1]: 7.77; pH after addition of 100 μl of 1 N HCl [2]: 3.71

Q: With `[Ca+2].[OH-].[OH-]` [Ca(OH)2] as the compound, how does the “pH of saturated solution” value [1] read?
A: 12.4

Q: And the “pH after addition of 100 μl of 1 N HCl” value [2]?
A: 12.20

Q: What does the source list for `O=C([O-])[O-].[Ca+2]` [CaCO3]?
A: pH of saturated solution [1]: 9.26; pH after addition of 100 μl of 1 N HCl [2]: 6.07

Q: What does the source list for `O=C([O-])[O-].[Mg+2]` [MgCO3]?
A: pH of saturated solution [1]: 9.75; stabilization of BSA (BSA [3]; PLGA millicylinders): stabilized BSA much better than the Mg(OH)2; Released (BSA [4]; 3% BSA/PLGA50/50 (0.20 dl/g) microspheres, 51-day release in PBST at 37° C.): more than 50%; BSA release after the first day burst over 28 days (BSA [4]; 4% BSA/PLGA50/50 (0.64 dl/g) W/O/W microspheres with basic salt): up to 10%; burst (BSA [4]; BSA/PLGA (0.20 dl/g) microspheres, data not shown): 32%; pH after addition of 100 μl of 1 N HCl [2]: 9.01

Q: For `CC[C@]1(O)C[C@@H]2CN(CCc3c([nH]c4ccccc34)[C@@](C(=O)OC)(c3cc4c(cc3OC)N(C)[C@H]3[C@@](O)(C(=O)OC)[C@H](OC(C)=O)[C@]5(CC)C=CCN6CC[C@]43[C@@H]65)C2)C1` [VBL, vinblastine sulfate], which “stability of encapsulated drug” value ([5]; PLGA (50% D,L lactide content) microspheres) is on record?
A: highly stabilized

Q: Which “pH of saturated solution” value [1] does the source give for `O=P([O-])([O-])[O-].O=P([O-])([O-])[O-].[Zn+2].[Zn+2].[Zn+2]` [Zn3(PO4)2] here?
A: 6.82

Q: What about the “pH after addition of 100 μl of 1 N HCl” value [2] of the same compound?
A: 1.53

Q: With `[OH-].[OH-].[Zn+2]` [Zn(OH)2] as the compound, how does the “pH of saturated solution” value [1] read?
A: 8.85

Q: What about the “pH after addition of 100 μl of 1 N HCl” value [2] of the same compound?
A: 5.86

Q: Which “drug degraded to the basic product during microsphere preparation” value ([5]; VCR PLGA microspheres with co-encapsulated base) does the source give for `O=C([O-])[O-].[Zn+2]` [ZnCO3] here?
A: 3%

Q: And the “pH of saturated solution” value [1]?
A: 7.34

Q: And the “pH after addition of 100 μl of 1 N HCl” value [2]?
A: 5.36

Q: Which results are given for Bovine serum albumin [BSA]?
A: initially encapsulated BSA that formed non-covalent aggregates (BSA [3]; 15% BSA/PLGA implants without base, 2 weeks release in PBST at 37° C., previous results): more than 60%; Aggregates soluble in denaturing solvent (BSA [3]; Encapsulated: 15% BSA in PLGA millicylinders in PBST at 37° C., PBST with 6M urea, 1 mM EDTA): >98%; Peptide fragmentation (BSA [3]; Encapsulated: 15% BSA in PLGA millicylinders in PBST at 37° C., SDS-PAGE): 25, 40, and 55 kDa; Time to 50% aggregation (BSA [3]; Encapsulated: 15% BSA in PLGA millicylinders incubated in PBST at 37° C.): 12 days; protein released in 1 day (BSA [3]; PLGA millicylinders, 20% BSA loading without the base): > 90%; non-covalent aggregates (BSA [4]; BSA in PLGA microspheres by solvent evaporation, no base): 25-75%; disulfide-bonded aggregates (BSA [4]; BSA in PLGA microspheres, some control experiments): < 5%; Time to 50% aggregation (BSA [6]): 7 days; Aggregates soluble in denaturing solvent (BSA [6]; PBST with 6M urea, 1 mM EDTA): >94%; Peptide fragmentation (BSA [6]; SDS-PAGE): 25, 40, and 55 kDa

Q: For “bFGF: recombinant human basic fibroblast growth factor”, which “in vivo biological activity, angiogenesis” value (nude mice) is on record?
A: confirmed

Q: What about the “in vivo serum half-life” value [7] of the same compound?
A: < 3 min

Q: What about the “bFGF bioactive over the entire release interval” value (Balb/c 3T3 fibroblasts) of the same compound?
A: 65-85%

Q: With “tPA: tissue type endogenous serine protease, encapsulated as 10% tPA powder in PLGA millicylinders” as the compound, how does the “one month release of tPA” value (tPA; 10% tPA powder in PLGA millicylinders with 3% Mg(OH)2) read?
A: 98.0±0.2%

Q: What about the “one month release of tPA” value (tPA; 10% tPA powder in PLGA millicylinders without Mg(OH)2) of the same compound?
A: 77.1±2.6%

Source: US6743446B2, “Methods for stabilizing biologically active agents encapsulated in biodegradable controlled-release polymers” (The Ohio State University Research Foundation, priority 1999, dated 2004)
